# Entries after “also recorded” stand apart in the source; their conditions may differ.
# How the values were obtained:
# Type in all cases: cell-based, human
# HeLa cells = assay: Apoptosis signaling in HeLa cells (nuclear fragmentation, cytochrome c, caspase 3, PARP1); set-up: percentage of cells with nuclear fragmentation / cytochrome c release from mitochondria to cytosol: unit of the concentration uncertain; settings: for percentage of cells with nuclear fragmentation: control 6%
# Method: Western blot analysis. Whole cell lysates were prepared by adding lysis buffer [4% SDS, 20% glycerol, 10% 2-mercaptoethanol, 0.004% bromophenol blue, 0.125 M Tris-HCl (pH 6.8)] to the cell pellets for 30 minutes in ice followed by centrifugation at 12,000×g for 10 minutes then boiling for 5 minutes. For isolation of cytosolic and mitochondrial fractions of cytochrome C, cell pellets were resuspended in CLAMI buffer (250 mM sucrose, 70 mM KCl, […] digitonin in 1×PBS, protease inhibitor cocktail (1 tablet/10 ml CLAMI buffer)) then incubated on ice for 5 minutes. After centrifugation at 12,000×g for 5 minutes at 4° C., supernatant (cytoplasmic fraction) was collected and the pellet resuspended in lysis buffer as described above. Proteins were then separated by SDS-PAGE and transferred to nitrocellulose membranes (Bio-Rad). After blocking at room temperature for 1 h, membranes were incubated at 4′C overnight with the primary antibodies including anti-Rpb1 (Santa Cruz Biotechnology), anti-XPB (Biotechne), anti-Actin (Developmental Studies Hybridoma Bank), anti-GAPDH (Santa Cruz Biotechnology), anti-cytochrome C (Santa Cruz Biotechnology), anti-PARP1 (Santa Cruz Biotechnology), anti-cleaved caspase 3 (Cell Signaling Technology), anti-VDAC (ProteinTech), anti-HIF-1[…] (BD sciences), and anti-GLUT1 (Santa Cruz Biotechnology) antibodies followed by incubation with horseradish peroxidase-conjugated anti-mouse or anti-rabbit IgG (GE Healthcare) at room temperature for 2 hours. Antibody-protein complexes were detected using enhanced chemiluminescence (ECL) immunoblotting detection reagent (EMD Millipore).
# Immunocytochemistry and cytochemistry. HeLa or PC3 cells (2×10^5) were seeded on a MatTek glass bottom culture dish (Fisher Scientific, Pittsburgh, Pa., USA) and allowed to adhere for 24 h. Cells were then treated with either DMSO or drugs for 6 or 24 h then fixed with 4% paraformaldehyde, permeabilized using 1×PBS with 0.5% triton X 100 then probed for endogenous RNA Polymerase II catalytic subunit Rpb1 or HIF-1α using anti-RNAPII (Santa Cruz Biotechnology) and anti-HIF-1α (BD sciences) antibodies, respectively. Detection was then done using anti-mouse Alexa Fluor 488 (Invitrogen). For nuclear staining, fixed and permeabilized cells were incubated in DAPI (ThermoFisher) or Hoechst 33258 (Sigma) for 30 minutes prior to imaging. Glucose uptake was monitored by incubating cells in 200 μM 2-NBDG (ThermoFisher) for 6 hours prior to fixation. Fluorescence was observed under the Nikon Eclipse TE200 Inverted microscope (Nikon Instruments Inc., Melville, N.Y., USA). ImageJ software (NIH, Bethesda, Md., USA; http://imagej.nih.gov/ij/index.html) was used to measure intracellular protein levels in immuno-cytochemistry samples (Li et al. (2015) Toxicological Sciences: an Official Journal of the Society of Toxicology 143:196-208). Rpb1 levels were measured using the MEASURE feature of ImageJ where all the background signals were subtracted from the intergrated density of nuclear Rpb1.
# [1] = system: RPB1 (RNAPII) in PC3 cells; assay: RPB1 degradation in PC3 cells under hypoxia, immunocytochemistry and western blot; settings: PC3, hypoxic but not normoxic conditions, 3 µM compound 1
# Method: Western blot analysis. Whole cell lysates were prepared by adding lysis buffer [4% SDS, 20% glycerol, 10% 2-mercaptoethanol, 0.004% bromophenol blue, 0.125 M Tris-HCl (pH 6.8)] to the cell pellets for 30 minutes in ice followed by centrifugation at 12,000×g for 10 minutes then boiling for 5 minutes. For isolation of cytosolic and mitochondrial fractions of cytochrome C, cell pellets were resuspended in CLAMI buffer (250 mM sucrose, 70 mM KCl, […] digitonin in 1×PBS, protease inhibitor cocktail (1 tablet/10 ml CLAMI buffer)) then incubated on ice for 5 minutes. After centrifugation at 12,000×g for 5 minutes at 4° C., supernatant (cytoplasmic fraction) was collected and the pellet resuspended in lysis buffer as described above. Proteins were then separated by SDS-PAGE and transferred to nitrocellulose membranes (Bio-Rad). […] Antibody-protein complexes were detected using enhanced chemiluminescence (ECL) immunoblotting detection reagent (EMD Millipore).
# Immunocytochemistry and cytochemistry. […] Glucose uptake was monitored by incubating cells in 200 μM 2-NBDG (ThermoFisher) for 6 hours prior to fixation. Fluorescence was observed under the Nikon Eclipse TE200 Inverted microscope (Nikon Instruments Inc., Melville, N.Y., USA). […] Rpb1 levels were measured using the MEASURE feature of ImageJ where all the background signals were subtracted from the intergrated density of nuclear Rpb1.
# MDA MB231 cells = assay: MDA MB231 proliferation under hypoxia ([3H]-thymidine incorporation); settings: MDA MB231, 1% O2, 48 h post treatment
# [2] = system: RPB1 in C342T XPB mutant cell line; assay: RPB1 degradation in C342T XPB knock-in cells, western blot; settings: C342T XPB mutant cell line, compound 1 up to 3 mM (so in the source)
# Text: Cells and culture conditions. Primary astrocytes (Lonza, Walkersville, Md.; ABM™ Basal Media with AGM™ SingleQuots™ Supplement Pack), fibroblast (ATCC; Fibroblast Basal Medium (ATCC© PCS-201-030™) with Fibroblast Growth Kit-Serum-free (ATCC© PCS-201-040™)), airway epithelial cell (ATCC; Airway Epithelial Cell Basal Medium (ATCC© PCS-300-030™) with Bronchial Epithelial Cell Growth Kit (ATCC© PCS-300-040™)), renal proximal tubule (ATCC; Renal Epithelial Cell Basal Medium (ATCC© PCS-400-030™) with Renal Epithelial Cell Growth Kit (ATCC© PCS-400-040™)), prostate epithelial cell (Lonza; PrEGM™ BulletKit™) and mammary epithelial cell (Lonza; MEBM™ BulletKit™) were kept in a humidified incubator at 37° C. adjusted to 5% CO2. […]
# Western blot analysis. […] Antibody-protein complexes were detected using enhanced chemiluminescence (ECL) immunoblotting detection reagent (EMD Millipore).
# HepG2 = HepG2 proliferation under hypoxia ([3H]-thymidine incorporation); settings: HepG2, 1% O2, 48 h post treatment
# MCF-7 = MCF-7 proliferation under hypoxia ([3H]-thymidine incorporation); settings: MCF-7, 1% O2, 48 h post treatment
# [3] = HeLa, 3 (unit uncertain) compound 1
structure (smiles),measurement,setting,value
CC(C)[C@]12O[C@H]1[C@@H]1O[C@]13[C@]1(O[C@H]1C[C@H]1C4=C(CC[C@@]13C)C(=O)OC4)[C@@H]2OC(=O)CCCO[C@@H]1OC(CO)[C@@H](O)C(O)C1O (stereo in doubt) [Compound 1],percentage of cells with nuclear fragmentation,"HeLa cells; HeLa, 1 (unit uncertain) compound 1",23%
same,cytochrome c release from mitochondria to cytosol,HeLa cells; [3],triggers the release of cytochrome c
same,percentage of cells with nuclear fragmentation,HeLa cells; [3],53%
same,caspase-3 activation,"HeLa cells; HeLa, western blot",activated caspase-3 dose dependently
same,PARP1 cleavage,"HeLa cells; increasing concentrations of compound 1, western blot",Pronounced PARP1 cleavage
same,onset of RNAPII (RPB1) degradation,[1],observed as early as 6 h
same,effect of hypoxia on anti-proliferative effect,MDA MB231 cells,enhances the anti-proliferative effect
same,RPB1 level,[2],remained stable
same,effect of hypoxia on anti-proliferative effect,HepG2,resistance; also recorded: remains resistant
same,effect of hypoxia on anti-proliferative effect,MCF-7,modest enhancement

# — patent US20230134986A1, “GLUCOSE TRIPTOLIDE CONJUGATES AND USES THEREOF” (The Johns Hopkins University, priority 2020, published 2023)
